Data reported in PubChem BioAssay (NCI).
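How tested: cells in 96-well plates exposed to compound for 48 hours at five concentrations. TGI is the concentration that stops growth completely.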

What was measured:
Assay in all cases: DTP human tumour cell line panel, 48 h
[1] = test system: SN12C renal
[2] = test system: UO-31 renal
[3] = test system: SF-539 CNS
[4] = test system: MDA-MB-231 breast
[5] = test system: NCI-H226 lung
[6] = test system: MDA-N
[7] = test system: OVCAR-4 ovarian
[8] = test system: M14 melanoma
[9] = test system: SF-295 CNS
[10] = test system: U251 CNS
[11] = test system: 786-0 renal
[12] = test system: HOP-92 NSCLC
[13] = test system: HCC-2998 colon
[14] = test system: SK-MEL-28 melanoma
[15] = test system: K-562 leukemia
[16] = test system: PC-3 prostate
[17] = test system: HCT-15 colon
[18] = test system: CAKI-1 renal

`O=C1CSC(/C=C/c2ccccc2)N1c1ccc(-n2c(-c3ccccc3)nc3ccccc3c2=O)cc1` (stereo not drawn) gave a TGI [1] of over 100 µM, a TGI [2] of over 100 µM and a TGI [3] of over 100 µM. For the same molecule, the TGI [4] was over 100 µM, the TGI [5] was over 100 µM and the TGI [6] was over 100 µM. The TGI [7] was 86.2 µM, the TGI [8] was over 100 µM and the TGI [9] was over 100 µM. For the same molecule, the TGI [10] was over 100 µM, the TGI [11] was over 100 µM and the TGI [12] was over 100 µM. It also gave a TGI [13] of over 100 µM, a TGI [14] of over 100 µM and a TGI [15] of over 100 µM. It also gave a TGI [16] of over 100 µM, a TGI [17] of over 100 µM and a TGI [18] of over 100 µM.
